Square brackets hold non-standard residues; d marks the D form. Peptide text beside a SMILES is read from it. Phg = N[C@H](C(=O)O)c1ccccc1

One data set can be described thus: Sweetness intensity based on informal panel testing. Format: in vivo.
Settings: not given
The compound `CC1(C)SC(C)(C)C1NC(=O)[C@H](NC(=O)[C@@H](N)CC(=O)O)c1ccccc1` [Example 11, alpha-L-Aspartyl-D-phenylglycine-2,2,4,4-tetramethylthietan-3-yl amide] returned a sweetness intensity of 100 X.
On the same count and under the same terms, as for “alpha-L-Aspartyl-D-phenylglycine-alpha-7-oxa-fenchyl ester [Example 14]”, the entry is “approximately 1000 X”.

Experiment in a further data set: not given
To be noted: prior art value; cited from earlier work.
Regarding `C[C@@H](NC(=O)[C@@H](N)CC(=O)O)C(=O)NC1C(C)(C)S(=O)(=O)C1(C)C`, the sweetness intensity was 1000 times that of sucrose.
Regarding `C[C@@H](NC(=O)[C@@H](N)CC(=O)O)C(=O)NC1C(C)(C)SC1(C)C` [2,2,4,4-tetramethylthietan-3-yl], the sweetness intensity is given as 2000 times that of sucrose.
As for `CC1CCC(C)C1NC(=O)[C@@H](C)NC(=O)[C@@H](N)CC(=O)O` (stereo partly drawn) [2,5 dimethylcyclopentyl], the sweetness intensity is recorded as 520 times that of sucrose.
As for `CC1CCCC(C)C1NC(=O)[C@@H](C)NC(=O)[C@@H](N)CC(=O)O` (stereo partly drawn) [2,6-dimethylcyclohexyl], the sweetness intensity is 600 times that of sucrose.
For `CCOC(=O)C(NC(=O)[C@@H](N)CC(=O)O)C(=O)OC1C2(C)CCC(C2)C1(C)C` (stereo partly drawn) [R' is fenchyl and R is ethyl], the sweetness intensity was 4200-5400 times that of sucrose.
With `COC(=O)C(NC(=O)[C@@H](N)CC(=O)O)C(=O)OC1C2(C)CCC(C2)C1(C)C` (stereo partly drawn) [R' is fenchyl and R is methyl], the sweetness intensity was 22,200-33,200 times that of sucrose.
As for `O=C1NS(=O)(=O)c2ccccc21` [Saccharin, saccharin], the sweetness intensity result is “about 300 times that of sucrose”.
Take `COC(=O)[C@H](Cc1ccccc1)NC(=O)[C@@H](N)CC(=O)O` [aspartame, alpha-L-aspartyl-L-phenylalanine methyl ester] (H-Asp-Phe-OMe): the sweetness intensity was 150-200 times that of sucrose.
For `C[C@@H](NC(=O)[C@@H](N)CC(=O)O)C(=O)NC(C1CC1)C1CC1` [dicyclopropylcarbinyl], the sweetness intensity is 1200 times that of sucrose.
In the case of `COC(=O)[C@@H](NC(=O)[C@@H](N)CC(=O)O)c1ccccc1` [methyl ester of L-aspartyl-L-phenylglycine] (H-Asp-[Phg]-OMe), the sweetness intensity was 100-1000 times that of sucrose.

The data set is the same for the next values; noted with them: taste description from prior art; cited from earlier work.
As to `COC(=O)[C@@H](Cc1ccccc1)NC(=O)[C@@H](N)CC(=O)O` [methyl ester of L-aspartyl-D-phenylalanine] (H-Asp-[dF]-OMe), the taste result is recorded as “bitter”.
With `COC(=O)[C@@H](NC(=O)[C@@H](N)CC(=O)O)c1ccccc1` [methyl ester of L-aspartyl-L-phenylglycine] (H-Asp-[Phg]-OMe), the taste entry was “quite sweet”.

Experiment in another data set: not given
As to conditions: in most carbonated beverages; background statement; cited from earlier work.
Take `COC(=O)[C@H](Cc1ccccc1)NC(=O)[C@@H](N)CC(=O)O` [aspartame, alpha-L-aspartyl-L-phenylalanine methyl ester] (H-Asp-Phe-OMe): the hydrolytic stability result is “hydrolytically unstable”.

Another data set is described as follows: Sweetness intensity relative to sucrose, taste panel comparison with five sucrose standard samples. The format is in vivo, Male subjects. To be noted: relative to sucrose (w/v); test sample about 22°C, prepared at a concentration equal to about 8-10% sucrose. The procedure:
The subjects were asked to taste and expectorate about 10 ml of a test sample (temperature of about 22°C) having dissolved therein the ester or amide. The subjects were then asked to compare the sweetness of the test sample with five standard samples which contained increasing amounts of sucrose. The standard samples were letter coded A, B, C, D and E and were designated on a ballot by a closed linear scale. Sweetness intensity of the test sample was recorded by the subject making a mark on the linear scale at a point they considered equal in sweetness among the standard samples; interpolation between standards was encouraged. After completion of the panel, a five point numeric scale was superimposed on the linear scales to obtain numerical data; data were averaged and recorded to the nearest 0.25 unit. Equivalent sucrose sweetness was determined by referring to graphs of (wlv) sucrose concentration in the standard samples versus a linear numeric scale.
Sweetness intensity was calculated by dividing the concentration (w/v) of perceived sweeteness by the concentration (wlv) of the ester or amide required to produce that sweetness. […] The test sample was prepared at a concentration which would be equal to about 8-10% sucrose.
`CC1(C)[C@@H]2CC[C@@](C)(C2)[C@@H]1OC(=O)[C@H](NC(=O)[C@@H](N)CC(=O)O)c1ccccc1` [Example 1, alpha-L-Aspartyl-D-phenylglycine-(-)-alpha-fenchyl ester] had a sweetness intensity of 1750 X.
On the same count and under the same terms, then `CC(OC(=O)[C@H](NC(=O)[C@@H](N)CC(=O)O)c1ccccc1)C(C)(C)C` (stereo partly drawn) [Example 2, 3,3-Dimethyl-2-butyl ester], with 30 X; and `CC1CCC(C)C1OC(=O)[C@H](NC(=O)[C@@H](N)CC(=O)O)c1ccccc1` (stereo partly drawn) [Example 4, 2,5-Dimethylcyclopentyl ester], with 370 X.
Same read-out and setting: then `N[C@@H](CC(=O)O)C(=O)N[C@@H](C(=O)NC(C1CC1)C1CC1)c1ccccc1` [Example 12, alpha-L-Aspartyl-D-phenylglycinedicyclopropylcarbinyl amide], with 80 X; and (±) endo-Norbornyl ester [Example 5], with 20 X; and (±) exo-Norbornyl ester [Example 6], with 150 X.
On the same count and under the same terms, then “alpha-L-Aspartyl-D-phenylglycine-(+)-beta-fenchyl ester [Example 8b]”, with 5000 X; and “alpha-L-Aspartyl-D-phenylglycine-(-)-beta-fenchyl ester [Example 8a]”, with 600 X.

Another data set is described as follows: Solubility for the sweetness intensity measurement. As to conditions: sweetness intensity test sample. Format: physicochemical.
In the case of `CC1CCCC(C)C1NC(=O)[C@H](NC(=O)[C@@H](N)CC(=O)O)c1ccccc1` (stereo partly drawn) [Example 10, 2,6-Dimethylcyclohexyl amide], the solubility entry was “too Insoluble for an accurate sweetness intensity measurement”.
